The assay has as its target T1, human GPR84 receptor (Homo sapiens, UniProt Q9NQS5).
T1 construct: host or cells: HEK293, transient transfection
In words: Gαi biosensor BRET assay in HEK293 cells (antagonism of ZQ-16). The format is cell-based. As to conditions: for inhibition at 10 µM: HEK293, single concentration 10 μM (designated F); for inhibition at 2 µM: HEK293, single concentration 2 μM (designated A); for IC50: HEK293 cells, antagonism of 200 nmol/L ZQ-16; for inhibition at 25 µM: HEK293, single concentration 25 μM (designated I). In a few lines: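 HEK293 cells transiently expressing human GPR84, Gαi2-Rluc8, GFP10-Gγ2 and Gβ1, in Tyrode's buffer pH 7.5. Compounds preincubated 5 min at 37° C, then 200 nmol/L ZQ-16 for 5 min at room temperature; coelenterazine 400A 5 μmol/L. BRET2 acceptor/donor ratio, background- and vehicle-corrected net BRET.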

T1 sequence (Q9NQS5 whole entry): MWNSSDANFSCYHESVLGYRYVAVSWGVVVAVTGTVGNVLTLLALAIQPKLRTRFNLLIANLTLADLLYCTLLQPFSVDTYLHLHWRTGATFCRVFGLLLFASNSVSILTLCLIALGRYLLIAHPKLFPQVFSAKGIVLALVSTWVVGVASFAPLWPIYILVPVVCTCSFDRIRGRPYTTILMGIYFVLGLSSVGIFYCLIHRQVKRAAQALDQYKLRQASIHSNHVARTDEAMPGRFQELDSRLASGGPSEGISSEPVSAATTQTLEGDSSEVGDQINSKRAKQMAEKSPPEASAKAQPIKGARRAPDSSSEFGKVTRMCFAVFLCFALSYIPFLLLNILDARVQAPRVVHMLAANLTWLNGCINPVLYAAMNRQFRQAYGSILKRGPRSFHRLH

As a reminder, the inhibition is the drop in the measured response relative to a control, in per cent. Low values mean a response near the control, high ones a response far below the control. For `Cc1cc(C#CC2CC2)cc(F)c1-c1cn(CC2CCCCO2)nn1` (centres unmarked) [Compound I-575], the inhibition at 10 µM was more than 75%.
On to `CCc1c(C#CC2CC2)cccc1Cc1cn(CC2CCCCO2)nn1` (centres unmarked) [Compound I-476], for which the inhibition at 2 µM was not above 25%.
Broadly, the IC50 is the midpoint of a concentration-inhibition curve. A higher IC50 goes with weaker potency in that assay. With `Cc1cc(N2CC(C)(CNc3ccccn3)C2)ccc1-c1cn(CC2OCC(C)(C)CO2)nn1` [Compound I-673], the inhibition at 2 µM was more than 75% and the IC50 was not above 0.3 µM.
In turn, `Cc1cc(C#CC2CC2)ccc1-c1cn(Cc2nccn2C)nn1` [Compound I-517] displayed an inhibition at 10 µM not above 25%.
Still for that read-out and setting: in the case of `O=c1oc(CC2CCCCO2)nn1Cc1ccc(C#CC2CC2)cc1` (centres unmarked) [Compound I-19] it was more than 75%.
Compound `C(#CC1CC1)c1ccc(-c2nnnn2CC2CCCCO2)cc1` (centres unmarked) [Compound I-346] had an inhibition at 25 µM of 25 to 50% and an IC50 of more than 3 µM.
`Cc1c(-c2cn(CC3CCCCO3)nn2)ccc(C#CC2CC2)c1F` (centres unmarked) [Compound I-505] came in with an inhibition at 2 µM not above 25%.
Consider `CCc1cc(N2CC(C)(C)C2)cnc1-c1cn(CC2CCCCO2)nn1` (centres unmarked) [Compound I-260], for which the inhibition at 10 µM lay in the range of 50 to 75%.
Same read-out and setting: as for `Cc1cc(N2CC(C)(C#N)C2)ccc1-c1cn(CC2CCCCO2)nn1` (centres unmarked) [Compound I-495], the figure is 25 to 50%.
`Cc1cc(N2CC(C)(CO)C2)c(F)cc1-c1cn(CC2CCCCO2)nn1` (centres unmarked) [Compound I-730]: the inhibition at 10 µM was more than 75% and the half-maximal inhibitory concentration (IC50) was 0.3 to 1 µM.
`Cc1cc(C#CC2CC2)ccc1-c1cn(CC2CCCO2)nn1` (centres unmarked) [Compound I-60]: the IC50 is more than 3 µM.
As to `CC1(C)CCC(Cn2cc(-c3ncc(C#CC4CC4)cc3OC3CC3)nn2)OC1` (centres unmarked) [Compound I-739], the inhibition at 2 µM was more than 75% and the IC50 was not above 0.3 µM.
The matching figures for `C(#CC1CC1)c1cnc(-c2cn(C[C@H]3CCCCO3)nn2)c(OC2CC2)c1` [Compound I-701]: more than 75% and not above 0.3 µM.
Compound `CC(=O)N1CCOC(Cn2cc(-c3ccc(C#CC4CC4)cc3C)nn2)C1` (centres unmarked) [Compound I-96] registered an inhibition at 10 µM not above 25%.
`Cc1cc(C#CC2CC2)ccc1-c1cn(Cc2cncn2C)nn1` [Compound I-528]: the inhibition at 10 µM was not above 25%.
`Cc1cc(NC(=O)C2CC2)ccc1-c1cn(CC2CCCCO2)nn1` (centres unmarked) [Compound I-109] returned an inhibition at 10 µM of 25 to 50%.
On to `CC1(C)COC(Cn2cc(-c3ccc(N4CC(C)(CO)C4)cc3CC(F)(F)F)nn2)C1` (centres unmarked) [Compound I-740], for which the inhibition at 2 µM was more than 75% and the IC50 is not above 0.3 µM.
Taken in the same sequence, the figures for `CC1(C)COC(Cn2cnc(-c3ncc(C#CC4CC4)cc3OC3CC3)c2)OC1` [Compound I-831] were more than 75% and not above 0.3 µM.
Taken in the same sequence, the figures for `CCN(CC)c1cc(N2CC(C)(CO)C2)c(F)cc1-c1cn(CC2OCC3(CC3)CO2)nn1` [Compound I-801] were more than 75% and not above 0.3 µM.
`CC(C)C#Cc1cnc(-c2cn(CC3OCC4(CC4)CO3)nn2)c(OC2CC2)c1` [Compound I-861] showed an inhibition at 10 µM of more than 75%.
Compound `C(#CC1CC1)c1ccc(-c2cn(CCOCC3COCCO3)nn2)cc1` (centres unmarked) [Compound I-93] displayed an inhibition at 10 µM not above 25%.
`CC(c1cccc(C#CCN2CC(C)(C)C2)c1)c1cn(CC2CCCCO2)nn1` (centres unmarked) [Compound I-425] displayed an inhibition at 10 µM of 25 to 50%.
Same read-out and setting: as for `Clc1ccc(C#CC2CC2)cc1-c1cn(CC2CCCCO2)nn1` (centres unmarked) [Compound I-134], the figure is not above 25%; as for `Cc1cc(N2CC(C)(C)C2)ccc1-c1cn(CC2OCC(F)(F)CO2)nn1` [Compound I-687], 50 to 75%; as for `COC(=O)C1CCCN1CC#Cc1ccc(-c2cn(CC3CCCCO3)nn2)c(C)c1` (centres unmarked) [Compound I-233], 50 to 75%.
Same read-out and setting: as for `CC1(C)CN(c2ccc(-c3cn(CC4CCCCO4)nn3)c(F)c2)C1` (centres unmarked) [Compound I-379], the figure is more than 75%; as for `Cc1cc(N2CC3(CN(c4cccnc4)C3)C2)ccc1-c1cn(CC2CCCCO2)nn1` (centres unmarked) [Compound I-629], not above 25%.
Still for that read-out and setting: as for `Cc1cc(N2CCC3(CC2)CN(Cc2ccccn2)C3)ccc1-c1cn(CC2CCCCO2)nn1` (centres unmarked) [Compound I-521], the figure is not above 25%.
Compound `Cc1cc(C#CC2CC2)ccc1-n1cc(CN2CCCCC2)nn1` [Compound I-296] returned an inhibition at 25 µM not above 25%.
With `Cc1ccc(C#N)cc1N(C)c1cn(CC2OCC(C)(C)CO2)nn1` [Compound I-811], the inhibition at 10 µM is not above 25%.
As for `Cc1ccccc1-c1cn(CC#Cc2ccc(-c3cn(CC4CCCCO4)nn3)c(C)c2)nn1` (centres unmarked) [Compound I-488], the inhibition at 10 µM was 50 to 75% and the IC50 was not above 0.3 µM.
The matching figures for `Cc1cc(C#CC2CC2)ccc1-c1cn(CC2CC3(CC3)CO2)nn1` (centres unmarked) [Compound I-569]: more than 75% and 1 to 3 µM.
On to `Cc1ccc(C#CCNc2ccccc2)cc1-c1cn(CC2CCCCO2)nn1` (centres unmarked) [Compound I-178], for which the inhibition at 10 µM is not above 25%.
Same read-out and setting: in the case of `CC(C)Oc1cc(C#CCNc2ccccn2)cnc1-c1cn(CC2CC(C)(C)CO2)nn1` (centres unmarked) [Compound I-606] it was 50 to 75%.
Same read-out and setting: as for `Cc1cc(N2CC(NS(C)(=O)=O)C2)ccc1-c1cn(CC2CCCCO2)nn1` (centres unmarked) [Compound I-486], the figure is not above 25%; as for `Cc1cc(N2CCN(Cc3cnccn3)CC2)ccc1-c1cn(CC2CCCCO2)nn1` (centres unmarked) [Compound I-577], 25 to 50%; as for `Cc1c(C(C)c2cccc(C#CC3CC3)c2)nnn1CC1CCCCO1` (centres unmarked) [Compound I-624], not above 25%.
As to `Cc1cc(C#CCN2CCC(F)(F)CC2)cnc1-c1cn(CC2CCCCO2)nn1` (centres unmarked) [Compound I-250], the inhibition at 10 µM lay within 50 to 75%.
Consider `CCc1cc(N2CC(C)(CO)C2)cnc1-c1cn(CC2CC(C)(C)CO2)nn1` (centres unmarked) [Compound I-500], for which the inhibition at 10 µM was more than 75% and the IC50 is 1 to 3 µM.
In turn, `CC1(C)COC(Cn2cc(Oc3ccccc3)nn2)OC1` [Compound I-743, 1-((5,5-dimethyl-1,3-dioxan-2-yl)methyl)-4-phenoxy-1H-1,2,3-triazole] displayed an inhibition at 10 µM not above 25%.
Consider `C=C(c1cncc(C#CC2CC2)c1)c1cn(CC2CCCCO2)nn1` (centres unmarked) [Compound I-427], for which the inhibition at 10 µM lay within 25 to 50% and the IC50 was more than 3 µM.
For `COC(=O)c1cc(C#CC2CC2)ccc1-c1cn(CC2CCCCO2)nn1` (centres unmarked) [Compound I-214], the inhibition at 10 µM is not above 25%.
The compound `Cc1cc(N2CCN(Cc3ccccn3)CC2)ccc1-c1cn(CC2CCCCO2)nn1` (centres unmarked) [Compound I-237] had an inhibition at 10 µM of more than 75% and an IC50 of 1 to 3 µM.
With `Cc1cc(C#CCN2CC(C)(C)C2)ccc1-c1cn(CC2OCC(F)(F)CO2)nn1` [Compound I-700], the inhibition at 2 µM was in the range of 50 to 75%.
As for `Cc1cc(N2CC(C)(CO)C2)ccc1-c1cn(CC2CCCCO2)nn1` (centres unmarked) [Compound I-263], the inhibition at 10 µM was more than 75%.
As to `CC(C)Oc1cc(N2CC(C)(CO)C2)cnc1-c1cn(CC2CC(C)(C)CO2)nn1` (centres unmarked) [Compound I-501], the inhibition at 10 µM is more than 75% and the IC50 was 1 to 3 µM.
Turning to `Cc1cc(N2CCN(C(=O)c3ccccn3)CC2)ccc1-c1cn(CC2CCCCO2)nn1` (centres unmarked) [Compound I-534], the inhibition at 10 µM is not above 25%.
Compound `Cc1cc(C#CCN)ccc1-c1cn(CC2OCC(C)(C)CO2)nn1` [Compound I-690] gave an inhibition at 10 µM of 25 to 50%.
Same read-out and setting: in the case of `Cc1cc(Cl)c(N2CC(C)(C)C2)cc1-c1cn(C[C@H]2CCCCO2)nn1` [Compound I-431] it was not above 25%.
Turning to `CCc1cc(C#CCN2CC(C)(C)C2)cnc1-c1cn(C[C@H]2CCCCO2)nn1` [Compound I-277], the inhibition at 10 µM was more than 75%.
`CC(C)Oc1cc(N2CC(C)(C)C2)cnc1-c1cn(CC2CCCCO2)nn1` (centres unmarked) [Compound I-630] returned an inhibition at 10 µM of more than 75%.
Same read-out and setting: as for `C(#Cc1ccc(-c2cn(CC3CCCCO3)nn2)cc1)CC1CC1` (centres unmarked) [Compound I-44], the figure is not above 25%.
The compound `Cc1cc(N2CC(C(C)O)C2)ccc1-c1cn(CC2CCCCO2)nn1` (centres unmarked) [Compound I-508] had an inhibition at 10 µM of 50 to 75%.
Turning to `Cc1ccc(C#CC2CC2)cc1Cc1cn(CC2OCC(C)(C)CO2)nn1` [Compound I-669, 4-(5-(cyclopropylethynyl)-2-methylbenzyl)-1-((5,5-dimethyl-1,3-dioxan-2-yl)methyl)-1H-1,2,3-triazole], the inhibition at 2 µM was more than 75% and the IC50 was not above 0.3 µM.
On to `C[C@@H]1Cc2oc(C(=O)NC[C@@H]3COCCO3)c(C(F)(F)F)c2-c2nn(CC3CCN(C(=O)C4CC4)CC3)cc21` [Compound I-787], for which the inhibition at 10 µM was not above 25% and the IC50 lay in the range of 0.3 to 1 µM.
In turn, `Cc1cc(C#CCNC(=O)C(F)(F)F)cnc1-c1cn(CC2CCCCO2)nn1` (centres unmarked) [Compound I-843, 2,2,2-trifluoro-N-(3-(5-methyl-6-(1-((tetrahydro-2H-pyran-2-yl)methyl)-1H-1,2,3-triazol-4-yl)pyridin-3-yl)prop-2-yn-1-yl)acetamide] registered an inhibition at 10 µM of more than 75%.
The same measure, in the same setting: as for `Cc1cc(N2CC(C)(CO)C2)ccc1-c1cn(CC2OCC(C)(C)CO2)nn1` [Compound I-614], the figure is 50 to 75%; as for `CNC1CCCN(c2ccc(-c3cn(CC4CCCCO4)nn3)c(C)c2)C1` (centres unmarked) [Compound I-170], not above 25%.
In turn, `Cc1cc(C#CC2CC2)ccc1-c1cn(CC2CCCCS2(=O)=O)nn1` (centres unmarked) [Compound I-248] displayed an inhibition at 10 µM not above 25%.
The compound `CCc1cc(C#CCOC2CC2)ccc1-c1cn(CC2OCC(C)(C)CO2)nn1` [Compound I-780] had an inhibition at 10 µM of more than 75% and an IC50 of 0.3 to 1 µM.
`CC(C)Oc1cc(C#CC2CC2)cnc1-c1cn(C[C@H]2CCCCO2)nn1` [Compound I-659] came in with an inhibition at 10 µM of more than 75% and an IC50 not above 0.3 µM.
In the case of `CC1(C)CN(CC#Cc2cnc(-c3cn(CC4OCC5(CCC5)O4)nn3)c(OC3CC3)c2)C1` (centres unmarked) [Compound I-764], the IC50 is 0.3 to 1 µM.

The record behind these values is US12617777B2, “GPR84 antagonists and uses thereof” (Liminal BioSciences Limited, priority 2021, dated 2026).
